Source: PMC7665585, “Antidepressive effect of an inward rectifier K^+ channel blocker peptide, tertiapin-RQ” (PLoS ONE, 2020)
Bridge positions count the residues as written; N and C are the ends. Ends that are not written are not given here. Peptide text beside a SMILES is read from it.

What follows are compounds tested against T1, rat ROMK (Rattus norvegicus, UniProt P35560) (assay: Whole-cell patch-clamp of ROMK currents in 208–4 cells). Conditions: blockade at 1 μM estimated from fitted Hill curve (four parameters), whole-cell conductance, n = 3–6.
T1 construct: expressed in transfected cells; host or cells: 293T cell line 208-4 (lentiviral transduction, GFP coexpressed)
T1 sequence (P35560 1-391): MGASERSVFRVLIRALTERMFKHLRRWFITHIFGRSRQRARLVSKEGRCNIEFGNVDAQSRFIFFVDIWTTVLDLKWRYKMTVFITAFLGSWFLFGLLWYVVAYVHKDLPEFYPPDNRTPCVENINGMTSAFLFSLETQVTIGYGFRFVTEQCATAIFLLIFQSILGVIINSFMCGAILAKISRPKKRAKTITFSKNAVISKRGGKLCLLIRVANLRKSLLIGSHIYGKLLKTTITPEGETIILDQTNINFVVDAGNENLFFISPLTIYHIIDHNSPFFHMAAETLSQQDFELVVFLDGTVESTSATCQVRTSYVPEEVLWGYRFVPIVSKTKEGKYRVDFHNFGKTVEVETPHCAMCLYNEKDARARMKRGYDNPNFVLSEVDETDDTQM
Type: cell-based
Excerpt: The cDNAs for rat ROMK and mouse GIRK1, 2, and 4 were generously donated by Drs Mikio Hayashi (Kansai Medical University) and David Weaver (Vanderbilt University). The ROMK channels were stably expressed by a cell line, 208–4, which was transduced with lentiviral vectors coexpressing the channel and green fluorescent protein (GFP) as described previously. The GIRK genes, cloned in a pCMV6 plasmid (Origene Technologies Inc, Rockville, MD), were transiently expressed in 293T cells with calcium phosphate transfection. GIRK channel currents were recorded 24 h after transfection.
Cells grown on small cover glasses (3 × 18 mm) were placed in a recording chamber. Whole-cell currents were recorded in Tyrode solution using an Axopatch 200B amplifier (Axon Instruments, Foster City, CA) at 25°C. Tyrode solution contained (in mM): NaCl 140, KCl 5.4, NaH2PO4 0.33, CaCl2 2, MgCl2 1, HEPES 5, and glucose 5.5 (pH 7.4 adjusted with NaOH). High K^+ Tyrode solution (KCL 50 mM, NaCl 95 mM, and others were the same as standard Tyrode solution) was used for the recording of GIRK channels. Patch pipettes pulled from borosilicate glass (Narishige, Tokyo, Japan) were filled with an internal solution containing (in mM): K-aspartate 66, KCl 71.5, KH2PO4 1, EGTA 5, HEPES 5, and MgATP 3 (pH 7.4 adjusted with KOH). Recordings were digitized at 10 kHz, and low-pass filtered at 2 kHz. ROMK, Kir2.1, and GIRK currents were evoked with step pulses of 400 msec from -150 mV to 10 mV in 10 mV increments from a holding potential of -70 mV. Whole-cell currents were recorded 60 sec after the peptide application and those from 100 to 300 msec of the step pulses were averaged. Liquid junction potential or capacitive transient was not corrected or compensated. Whole-cell conductance was calculated as the slope of the current-voltage (I-V) relationship from -140 mV to -100 mV and normalized to the initial value (0 μM TPN), in which BaCl2-resistant current was subtracted and indicted as a percentage.

**Q.** How did the “Activity (ROMK channel blocking activity, percentage of blockade at 1 μM)” value turn out when TPN-RQ(C18S) [Peptide 48] was run?
**A.** The value was “- (-, <20%)”.

**Q.** How did the “Activity (ROMK channel blocking activity, percentage of blockade at 1 μM)” value turn out when TPN 12–19 [Peptide 15] was run?
**A.** The value was “- (-, <20%)”.

**Q.** How did the “Activity (ROMK channel blocking activity, percentage of blockade at 1 μM)” value turn out when TPN-RQ(Ins9I) [Peptide 54] was run?
**A.** The value was “- (-, <20%)”.

**Q.** How did the “Activity (ROMK channel blocking activity, percentage of blockade at 1 μM)” value turn out when TPN 2–9 [Peptide 5] was run?
**A.** The value was “- (-, <20%)”.

**Q.** For TPN 3–10 [Peptide 6], which “Activity (ROMK channel blocking activity, percentage of blockade at 1 μM)” value is on record?
**A.** The value was “- (-, <20%)”.

Same assay, conditions: blockade at 1 μM estimated from fitted Hill curve (four parameters), whole-cell conductance, n = 3–6, read-out: Activity (ROMK channel blocking activity, percentage of blockade at 1 μM)

**Q.** For `CC[C@H](C)[C@@H]1NC(=O)[C@H](CCCNC(=N)N)NC(=O)[C@H](CCCNC(=N)N)NC(=O)[C@H](CC(N)=O)NC(=O)[C@@H]2CSSC[C@@H](C(=O)NCC(=O)N[C@@H](CCCCN)C(=O)N[C@@H](CCCCN)C(N)=O)NC(=O)[C@H](CCCCN)NC(=O)[C@H](CCCCN)NC(=O)[C@H](Cc3c[nH]c4ccccc34)NC(=O)[C@H](CSSC[C@H](NC(=O)[C@H](CC(C)C)NC(=O)[C@H](C)N)C(=O)N[C@@H](CC(N)=O)C(=O)N2)NC(=O)[C@H](C)NC(=O)[C@H](Cc2c[nH]cn2)NC(=O)[C@@H]2CCCN2C(=O)[C@H]([C@@H](C)CC)NC1=O` [Peptide 64, TPN-RQ(Q13A)] (H-ALCNCNRRIIPHACWKKCGKK-NH2; disulfide 3-14, 5-18), which inhibition at 1 µM is on record?
**A.** Its inhibition at 1 µM is 20 to 40%.

**Q.** “RIIIPHQK-NH2 [Peptide 21, TPN-Q 7–13 + K]” was tested. Which inhibition at 1 µM did it give?
**A.** Its inhibition at 1 µM is under 20%.

**Q.** For `CC[C@H](C)[C@@H]1NC(=O)[C@H](CCCNC(=N)N)NC(=O)[C@H](CCCNC(=N)N)NC(=O)[C@H](CC(N)=O)NC(=O)[C@@H](N)CSSC[C@@H](C(N)=O)NC(=O)[C@H](CCC(N)=O)NC(=O)[C@H](CCCCN)NC(=O)[C@@H]2CCCN2C(=O)[C@H]([C@@H](C)CC)NC1=O` [Peptide 36, TPN-RQ 5-14(H12K)] (H-CNRRIIPKQC-NH2; disulfide 1-10), which inhibition at 1 µM is on record?
**A.** Its inhibition at 1 µM is under 20%.

**Q.** For `CC[C@H](C)[C@@H]1NC(=O)[C@H](CCCNC(=N)N)NC(=O)[C@H](CC(N)=O)NC(=O)[C@@H]2CSSC[C@@H](C(=O)NCC(=O)N[C@@H](CCCCN)C(=O)N[C@@H](CCCCN)C(N)=O)NC(=O)[C@H](CCCCN)NC(=O)[C@H](CCCCN)NC(=O)[C@H](Cc3c[nH]c4ccccc34)NC(=O)[C@H](CSSC[C@H](NC(=O)[C@H](CC(C)C)NC(=O)[C@H](C)N)C(=O)N[C@@H](CC(N)=O)C(=O)N2)NC(=O)[C@H](CCC(N)=O)NC(=O)[C@H](Cc2c[nH]cn2)NC(=O)[C@@H]2CCCN2C1=O` [Peptide 52, TPN-RQ(Δ8R/ΔI9)] (H-ALCNCNRIPHQCWKKCGKK-NH2; disulfide 3-12, 5-16), which inhibition at 1 µM is on record?
**A.** Its inhibition at 1 µM is under 20%.

**Q.** For `CC[C@H](C)[C@@H]1NC(=O)[C@H](CCCNC(=N)N)NC(=O)[C@H](CCCNC(=N)N)NC(=O)[C@H](CC(N)=O)NC(=O)[C@@H]2CSSC[C@@H](C(=O)NCC(=O)N[C@@H](CCCCN)C(=O)N[C@@H](CCCCN)C(N)=O)NC(=O)[C@H](CCCCN)NC(=O)[C@H](CCCCN)NC(=O)[C@H](Cc3c[nH]c4ccccc34)NC(=O)[C@H](CSSC[C@H](N)C(=O)N[C@@H](CC(N)=O)C(=O)N2)NC(=O)[C@H](CCC(N)=O)NC(=O)[C@H](Cc2c[nH]cn2)NC(=O)[C@@H]2CCCN2C(=O)[C@H]([C@@H](C)CC)NC1=O` [Peptide 70, TPN-RQ(Δ1A/Δ2L)] (H-CNCNRRIIPHQCWKKCGKK-NH2; disulfide 1-12, 3-16), which inhibition at 1 µM is on record?
**A.** Its inhibition at 1 µM is 60 to 80%.

**Q.** Which inhibition at 1 µM does the source give for `CC[C@H](C)[C@@H]1NC(=O)[C@H](CCCNC(=N)N)NC(=O)[C@H](CCCNC(=N)N)NC(=O)[C@H](C)NC(=O)[C@@H]2CSSC[C@@H](C(=O)NCC(=O)N[C@@H](CCCCN)C(=O)N[C@@H](CCCCN)C(N)=O)NC(=O)[C@H](CCCCN)NC(=O)[C@H](CCCCN)NC(=O)[C@H](Cc3c[nH]c4ccccc34)NC(=O)[C@H](CSSC[C@H](NC(=O)[C@H](CC(C)C)NC(=O)[C@H](C)N)C(=O)N[C@@H](CC(N)=O)C(=O)N2)NC(=O)[C@H](CCC(N)=O)NC(=O)[C@H](Cc2c[nH]cn2)NC(=O)[C@@H]2CCCN2C(=O)[C@H]([C@@H](C)CC)NC1=O` [Peptide 57, TPN-RQ(N6A)] (H-ALCNCARRIIPHQCWKKCGKK-NH2; disulfide 3-14, 5-18) here?
**A.** Its inhibition at 1 µM is 60 to 80%.

**Q.** Which inhibition at 1 µM does the source give for `CC[C@H](C)[C@@H]1NC(=O)[C@H](CCCNC(=N)N)NC(=O)[C@H](CCCNC(=N)N)NC(=O)[C@H](CC(N)=O)NC(=O)[C@H](CO)NC(=O)[C@H](CC(N)=O)NC(=O)[C@@H](NC(=O)[C@@H](N)CCC(N)=O)CSSC[C@@H](C(=O)N[C@@H](Cc2c[nH]c3ccccc23)C(=O)N[C@@H](CCCCN)C(N)=O)NC(=O)[C@H](CCC(N)=O)NC(=O)[C@H](Cc2c[nH]cn2)NC(=O)[C@@H]2CCCN2C(=O)[C@H]([C@@H](C)CC)NC1=O` [Peptide 43, Q + TPN-RQ 3-16(C5S)] (H-QCNSNRRIIPHQCWK-NH2; disulfide 2-13) here?
**A.** Its inhibition at 1 µM is under 20%.

**Q.** How did the inhibition at 1 µM turn out when `CC[C@H](C)[C@@H]1NC(=O)[C@H](CCCNC(=N)N)NC(=O)[C@H](CCCNC(=N)N)NC(=O)[C@H](CC(N)=O)NC(=O)[C@@H](N)CSSC[C@@H](C(N)=O)NC(=O)[C@H](CCC(N)=O)NC(=O)[C@H](Cc2c[nH]cn2)NC(=O)[C@@H]2CCCN2C(=O)[C@H]([C@@H](C)CC)NC1=O` [Peptide 35, TPN-RQ 5–14] (H-CNRRIIPHQC-NH2; disulfide 1-10) was run?
**A.** Its inhibition at 1 µM is under 20%.

**Q.** Which inhibition at 1 µM does the source give for `CC[C@H](C)[C@@H]1NC(=O)[C@H](CCCNC(=N)N)NC(=O)[C@H](CCCNC(=N)N)NC(=O)[C@H](CC(N)=O)NC(=O)[C@@H]2CSSC[C@@H](C(=O)NCC(=O)N[C@@H](CCCCN)C(=O)N[C@@H](CCCCN)C(N)=O)NC(=O)[C@H](CCCCN)NC(=O)[C@H](CCCCN)NC(=O)[C@H](Cc3c[nH]c4ccccc34)NC(=O)[C@H](CSSC[C@H](NC(=O)[C@H](CC(C)C)NC(=O)[C@H](C)N)C(=O)N[C@@H](CC(N)=O)C(=O)N2)NC(=O)[C@H](CCC(N)=O)NC(=O)[C@H](Cc2c[nH]cn2)NC(=O)[C@@H]2CCCN2C(=O)[C@H](C)NC1=O` [Peptide 61, TPN-RQ(I10A)] (H-ALCNCNRRIAPHQCWKKCGKK-NH2; disulfide 3-14, 5-18) here?
**A.** The inhibition at 1 µM was 20 to 40%.

**Q.** CNRIIIPH-NH2 [Peptide 8, TPN 5–12] was tested. Which inhibition at 1 µM did it give?
**A.** Its inhibition at 1 µM is under 20%.

**Q.** Which inhibition at 1 µM does the source give for NCNRIIIP-NH2 [Peptide 7, TPN 4–11] here?
**A.** The inhibition at 1 µM was under 20%.

**Q.** With `CC[C@H](C)[C@@H]1NC(=O)[C@H](CCCNC(=N)N)NC(=O)[C@H](CCCNC(=N)N)NC(=O)[C@H](CC(N)=O)NC(=O)[C@@H]2CSSC[C@@H](C(=O)NCC(=O)N[C@@H](C)C(=O)N[C@@H](CCCCN)C(N)=O)NC(=O)[C@H](CCCCN)NC(=O)[C@H](CCCCN)NC(=O)[C@H](Cc3c[nH]c4ccccc34)NC(=O)[C@H](CSSC[C@H](NC(=O)[C@H](CC(C)C)NC(=O)[C@H](C)N)C(=O)N[C@@H](CC(N)=O)C(=O)N2)NC(=O)[C@H](CCC(N)=O)NC(=O)[C@H](Cc2c[nH]cn2)NC(=O)[C@@H]2CCCN2C(=O)[C@H]([C@@H](C)CC)NC1=O` [Peptide 68, TPN-RQ(K20A)] (H-ALCNCNRRIIPHQCWKKCGAK-NH2; disulfide 3-14, 5-18) as the compound, how does the inhibition at 1 µM read?
**A.** Its inhibition at 1 µM is 40 to 60%.

**Q.** For NRIIIPHM-NH2 [Peptide 9, TPN 6–13], which inhibition at 1 µM is on record?
**A.** Its inhibition at 1 µM is under 20%.

**Q.** For RRIIPHQC-NH2 [Peptide 20, TPN-RQ 7–14], which inhibition at 1 µM is on record?
**A.** Its inhibition at 1 µM is under 20%.

**Q.** How did the inhibition at 1 µM turn out when `CC[C@H](C)[C@@H]1NC(=O)[C@H](CCCNC(=N)N)NC(=O)[C@H](CCCNC(=N)N)NC(=O)[C@H](CC(N)=O)NC(=O)[C@@H]2CSSC[C@@H](C(=O)NCC(=O)N[C@@H](CCCCN)C(=O)N[C@@H](CCCCN)C(N)=O)NC(=O)[C@H](CCCCN)NC(=O)[C@H](CCCCN)NC(=O)[C@H](C)NC(=O)[C@H](CSSC[C@H](NC(=O)[C@H](CC(C)C)NC(=O)[C@H](C)N)C(=O)N[C@@H](CC(N)=O)C(=O)N2)NC(=O)[C@H](CCC(N)=O)NC(=O)[C@H](Cc2c[nH]cn2)NC(=O)[C@@H]2CCCN2C(=O)[C@H]([C@@H](C)CC)NC1=O` [Peptide 65, TPN-RQ(W15A)] (H-ALCNCNRRIIPHQCAKKCGKK-NH2; disulfide 3-14, 5-18) was run?
**A.** The inhibition at 1 µM was 20 to 40%.

Same assay, conditions: whole-cell recordings

**Q.** How did the “ROMK blocking activity (in words)” value turn out when TPN-RQ(Ins9I) [Peptide 54] was run?
**A.** The value was “abolished the activity”.
